Assay results from patent publication US11400084B2 (BioTheryX, Inc., priority 2018, dated 2022).

What was measured:
MV-4-11 cells = assay: Comparative study cell viability, MV-4-11 cells (CTG2, 3 days); format: cell-based; settings: for IC50: Homo sapiens, MV4-11, 72 h, 3 days, read-out: reduced cell viability IC50; for IC50 concentration as fold of the IC50 concentration of Compound 1: relative to Compound 1
Description: (§1) Molm-13 and MV-4-11 cells (both leukemia cell lines) were cultured in RPMI 1640 media supplemented with 10% fetal bovine serum, streptomycin and penicillin, and were plated in white walled 96-well plates at 20,000 cells/well. THLE-2 cells (T-antigen immortalized human liver epithelial cells) were cultured using BEGM Bullet kit (Lonza CC-3170) supplemented with 10% fetal bovine serum, streptomycin and penicillin, and were plated in white walled 96-well plates 5000 cells/well. NHLF (normal human lung fibroblast) cells were cultured in DMEM media supplemented with 10% fetal bovine serum, streptomycin and penicillin, and were plated in white walled 96-well plates at 5000 cells/well. Cells were incubated in DMSO (control) or the indicated compounds for 3 days at 37° C. and 5% CO2. Following the incubation period, 100 μL of CellTiterGlow2 (CTG2) reagent (CellTiter-Glo®2 Luminescent Cell Viability Assay, Promega (Madison, Wis.)) was added to each well. Following a 10 minutes incubation with shaking, luminescence was measured using the Victor Wallac Luminometer or the Envision 2105 multimode plate reader.

MOLM-13 cells [1] = assay: Comparative study cell viability, Molm-13 cells (CTG2, 3 days); format: cell-based; settings: Homo sapiens, 72 h, read-out: reduced cell viability IC50
Description: as §1

CK1α = molecular target: T1, CK1α (Homo sapiens, UniProt P48729+Q96SW2); assay: Western blot CK1α degradation assay in MV-4-11 cells; format: cell-based; settings: 6-8 hours
T1 construct: endogenous in cells; host or cells: MV-4-11
T1 sequence (P48729 whole entry): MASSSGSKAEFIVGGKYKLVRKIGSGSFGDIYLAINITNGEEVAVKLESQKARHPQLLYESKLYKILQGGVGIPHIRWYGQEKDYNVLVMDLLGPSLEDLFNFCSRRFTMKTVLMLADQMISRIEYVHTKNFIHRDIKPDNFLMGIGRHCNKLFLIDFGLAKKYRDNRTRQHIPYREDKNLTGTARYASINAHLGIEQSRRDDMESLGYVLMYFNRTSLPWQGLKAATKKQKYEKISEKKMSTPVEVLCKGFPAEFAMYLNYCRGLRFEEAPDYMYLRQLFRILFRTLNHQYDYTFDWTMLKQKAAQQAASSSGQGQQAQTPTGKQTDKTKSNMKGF
T1 sequence (Q96SW2 whole entry): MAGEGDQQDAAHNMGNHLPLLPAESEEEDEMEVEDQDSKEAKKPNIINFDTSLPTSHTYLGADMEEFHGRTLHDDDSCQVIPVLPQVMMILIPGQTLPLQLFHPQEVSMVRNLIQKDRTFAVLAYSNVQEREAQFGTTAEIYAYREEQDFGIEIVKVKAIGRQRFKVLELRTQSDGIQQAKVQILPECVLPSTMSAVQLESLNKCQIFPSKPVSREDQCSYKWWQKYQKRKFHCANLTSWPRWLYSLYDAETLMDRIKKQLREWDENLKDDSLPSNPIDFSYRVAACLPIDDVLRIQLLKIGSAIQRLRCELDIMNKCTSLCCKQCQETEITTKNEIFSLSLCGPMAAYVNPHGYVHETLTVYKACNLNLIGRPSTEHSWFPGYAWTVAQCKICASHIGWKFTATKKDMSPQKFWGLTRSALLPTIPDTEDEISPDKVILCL
T1 sequence (Q16531 whole entry partner): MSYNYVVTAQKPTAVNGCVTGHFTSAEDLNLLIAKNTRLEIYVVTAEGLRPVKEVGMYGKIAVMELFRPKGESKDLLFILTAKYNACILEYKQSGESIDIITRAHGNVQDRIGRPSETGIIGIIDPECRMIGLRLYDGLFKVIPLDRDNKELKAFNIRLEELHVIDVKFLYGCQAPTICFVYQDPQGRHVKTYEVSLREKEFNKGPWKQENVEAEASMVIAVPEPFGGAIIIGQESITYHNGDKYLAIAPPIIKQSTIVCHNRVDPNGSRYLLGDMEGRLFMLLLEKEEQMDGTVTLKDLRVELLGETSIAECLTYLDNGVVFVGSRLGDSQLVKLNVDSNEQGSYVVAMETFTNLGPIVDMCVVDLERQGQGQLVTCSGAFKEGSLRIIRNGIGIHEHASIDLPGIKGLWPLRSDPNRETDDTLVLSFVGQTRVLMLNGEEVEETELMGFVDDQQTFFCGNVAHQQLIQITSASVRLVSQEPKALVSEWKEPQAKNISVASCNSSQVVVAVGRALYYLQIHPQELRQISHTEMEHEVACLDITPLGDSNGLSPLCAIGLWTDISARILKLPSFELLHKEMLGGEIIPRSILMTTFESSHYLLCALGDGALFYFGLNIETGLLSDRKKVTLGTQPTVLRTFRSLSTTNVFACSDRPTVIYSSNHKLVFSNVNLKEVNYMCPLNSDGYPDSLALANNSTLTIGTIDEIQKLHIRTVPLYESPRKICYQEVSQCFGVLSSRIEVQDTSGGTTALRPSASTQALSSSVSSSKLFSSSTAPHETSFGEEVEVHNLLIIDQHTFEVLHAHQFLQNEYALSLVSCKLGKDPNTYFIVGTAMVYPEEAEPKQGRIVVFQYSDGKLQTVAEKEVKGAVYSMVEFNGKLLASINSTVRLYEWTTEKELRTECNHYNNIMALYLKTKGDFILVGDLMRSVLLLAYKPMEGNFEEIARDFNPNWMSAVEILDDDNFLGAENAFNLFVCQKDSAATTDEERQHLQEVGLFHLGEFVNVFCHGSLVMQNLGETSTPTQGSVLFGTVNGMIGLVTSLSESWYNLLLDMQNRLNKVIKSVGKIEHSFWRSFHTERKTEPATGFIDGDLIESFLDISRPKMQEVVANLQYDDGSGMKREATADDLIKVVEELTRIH
Description: (§2) MV-4-11 cells were grown in RPMI 1640 media supplemented with 10% fetal bovine serum, streptomycin and penicillin.
(§3) Cells were cultured at approximately 10^6 cells per mL and incubated in DMSO or the indicated compound for 6-8 hours. Whole cell extracts were prepared using RIPA buffer according to manufacturer's protocol (Pierce). Briefly, 3×10^6 cells were washed once in PBS, the cell pellets were resuspended in RIPA buffer and allowed to incubate for 15 minutes on ice. Cells debris was removed by centrifugation and the cleared whole cell lysates were transferred to new tubes for further analysis.
(§4) For Western blot analysis, whole cell protein extracts were separated on 4-12% SDS-polyacrylamide gels, transferred to nitrocellulose and probed with the indicated primary antibodies. Membranes were subsequently washed and probed with the appropriate IRDye secondary antibodies (LI-COR). The signal was detected using the Odyssey Imaging System (LI-COR).
(§5) The following antibodies were used in these studies: Anti-eRF3/GSPT1: Abcam, ab126090 (Cambridge, Mass.); Anti-Ikaros: Abcam, ab191394 (Cambridge, Mass.); Anti-CK1α: Abcam, ab108296 (Cambridge, Mass.); β-actin (8H10D10) mouse monoclonal antibody: Cell Signaling Technology, #3700 (Danvers, Mass.); IRDye 680RD Goat anti-rabbit antibody: LI-COR, 926-68071 (Lincoln, Nebr.); IRDye 800CW Goat anti-mouse antibody: LI-COR, 926-32210 (Lincoln, Nebr.).
(§6) In each of Tables 1-3, the % degradation values are reported as “A”, “B”, “C”, or “D.” “A” represents a % degradation value of less than 25% (value<25%); “B” represents a % degradation value of equal to or more than 25% and less than 50% (25%≤value<50%); “C” represents a % degradation value of equal to or more than 50% and less than 75% (50%≤value<75%); and “D” represents a % degradation value of equal to or more than 75% (value≥75%).

PBMCs = assay: Comparative study cell viability, LPS-induced PBMCs (CTG); format: cell-based; settings: PBMC, LPS 18-24 hr, read-out: reduced cell viability IC50
Description: Frozen […] blood mononuclear cells (PBMCs) were purchased from AllCells. Cells were quick thawed, washed with RPMI-1640/10% FBS/1% Penicillin/1% Streptomycin and plated in 96 well plates at 200,000 cells/well. Cells were pretreated with DMSO or the indicated compound for 1 hr and then induced with 100 ng/mL lipopolysaccharide (LPS) for 18-24 hr. Following the incubation period, 100 μL of CTG reagent was added to each well. Plates were incubated on the shaker at RT for 2 min. Following a 10 min incubation without shaking, luminescence was measured using the Envision 2105 multimode plate reader.

THLE-2 cells = assay: Comparative study cell viability, THLE-2 cells (CTG2, 3 days); format: cell-based, human; settings: for IC50: Homo sapiens, 72 h, 3 days, read-out: reduced cell viability IC50; for IC50 concentration as fold of the IC50 concentration of Compound 1: relative to Compound 1
Description: as §1

IKAROS = molecular target: T2, IKAROS (Homo sapiens, UniProt Q13422+Q96SW2); assay: Western blot IKAROS degradation assay in MV-4-11 cells; format: cell-based; settings: 6-8 hours
T2 construct: endogenous in cells; host or cells: MV-4-11
T2 sequence (Q13422 whole entry): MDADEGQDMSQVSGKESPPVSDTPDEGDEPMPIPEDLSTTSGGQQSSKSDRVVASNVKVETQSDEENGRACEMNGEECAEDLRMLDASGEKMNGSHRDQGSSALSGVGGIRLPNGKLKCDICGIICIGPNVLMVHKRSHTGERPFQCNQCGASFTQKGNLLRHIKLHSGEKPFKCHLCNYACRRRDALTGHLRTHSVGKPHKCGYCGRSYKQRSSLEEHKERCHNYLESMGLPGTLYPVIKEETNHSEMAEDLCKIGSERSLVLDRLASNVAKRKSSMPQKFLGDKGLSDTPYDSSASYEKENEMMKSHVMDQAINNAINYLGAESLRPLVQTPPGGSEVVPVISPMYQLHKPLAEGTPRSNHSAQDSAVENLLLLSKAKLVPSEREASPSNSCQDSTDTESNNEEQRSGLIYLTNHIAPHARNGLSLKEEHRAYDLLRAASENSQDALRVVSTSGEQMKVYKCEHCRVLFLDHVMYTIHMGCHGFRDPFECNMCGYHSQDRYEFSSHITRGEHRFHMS
T2 sequence (Q96SW2 whole entry): as the sequence (Q96SW2 whole entry) above
T2 sequence (Q16531 whole entry partner): as the sequence (Q16531 whole entry partner) above
Description: as §2, §3, §4, §5, §6

GSPT1 = molecular target: T3, GSPT1 (Homo sapiens, UniProt P15170+Q96SW2); assay: Western blot GSPT1 degradation assay in MV-4-11 cells; format: cell-based; settings: for reduced levels of GSPT1: comparative study; for GSPT1 % Degradation at 1 μM: MV-4-11 cells, 6-8 hours
T3 construct: whole cell protein extracts were separated on 4-12% SDS-polyacrylamide gels; endogenous in cells; host or cells: MV-4-11
T3 sequence (P15170 whole entry): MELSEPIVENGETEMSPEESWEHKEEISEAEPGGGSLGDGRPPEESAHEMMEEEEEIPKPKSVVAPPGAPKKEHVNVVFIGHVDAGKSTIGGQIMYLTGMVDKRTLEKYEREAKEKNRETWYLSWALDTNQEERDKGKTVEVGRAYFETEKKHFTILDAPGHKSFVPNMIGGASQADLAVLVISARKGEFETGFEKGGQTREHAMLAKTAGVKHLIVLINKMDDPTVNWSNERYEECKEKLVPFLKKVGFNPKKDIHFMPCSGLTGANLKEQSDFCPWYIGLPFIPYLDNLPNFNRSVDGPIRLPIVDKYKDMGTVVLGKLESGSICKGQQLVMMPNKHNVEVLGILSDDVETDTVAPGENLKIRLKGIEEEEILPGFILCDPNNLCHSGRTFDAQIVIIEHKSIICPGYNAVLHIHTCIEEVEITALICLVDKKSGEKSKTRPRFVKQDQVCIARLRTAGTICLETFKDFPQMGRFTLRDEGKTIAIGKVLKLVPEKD
T3 sequence (Q96SW2 whole entry): as the sequence (Q96SW2 whole entry) above
T3 sequence (Q16531 whole entry partner): as the sequence (Q16531 whole entry partner) above
Description: as §2, §3, §4, §5, §6

MOLM-13 cells [2] = assay: MOLM-13 cell viability assay (CellTiter-Glo 2, 3 days, 2500 cells/well); format: cell-based; settings: Homo sapiens, MOLM-13, 72 h, percentage of DMSO control
Description: MOLM-13 cells were cultured in RPMI 1640 media supplemented with 10% fetal bovine serum, streptomycin and penicillin, and were plated in white walled 96-well plates at 2500 cells/well. Cells were incubated in DMSO (control) or the indicated compound for 3 days at 37° C. and 5% CO2. Following the incubation period, 100 μL of CellTiterGlow2 (CTG2) reagent (CellTiter-Glo®2 Luminescent Cell Viability Assay, Promega (Madison, Wis.)) was added to each well. Following a 10 minutes incubation with shaking, luminescence was measured using the EnVision Multimode plate reader.
The MOLM-13 cell viability values, measured as percentages of the DMSO control, are reported in Table 8 as “A”, “B”, “C”, or “D.” “A” represents a % viability value of less than 40% (value<40%). “B” represents a % viability value of equal to or more than 40% and less than 60% (40%≤value<60%). “C” represents a % viability value of equal to or more than 60% and less than 90% (60%≤value<90%). “D” represents a % viability value of equal or more than 90% (value≥90%).

NHLF cells = assay: Comparative study cell viability, NHLF cells (CTG2, 3 days); format: cell-based; settings: Homo sapiens, 72 h, read-out: reduced cell viability IC50
Description: as §1

IL-2 = IL-2 fold-change assay, anti-CD3 stimulated PBMCs, Mesoscale; format: cell-based; settings: Homo sapiens, PBMC, 24 h, fold difference from the DMSO control
Description: For the IL-2 analysis, 96 well plates were precoated with 1 μg/mL anti-human CD3 antibody (OKT3, eBioscience Inc., San Diego, Calif.). After washing with PBS, the indicated compound was added (50 μL/well) followed by PBMCs diluted at 3-4 million cells/mL (150 μL/well). Plates were incubated for 24 h and the supernatants collected for Mesoscale IL-2 analysis. IL-2 activity is measured as fold difference from the DMSO control.
In Table 7, the fold-change values are reported as “A”, “B”, “C”, or “D”. “A” represents a fold-change value of equal to or less than 1 (value≤1); “B” represents a fold-change value of more than 1 and equal to or less than 2 (1<value≤2); “C” represents a fold-change value of more than 2 and equal to or less than 3 (2<value≤3); and “D” represents a fold-change value of more than 3 (value>3).

TNFα = assay: TNF-α inhibition assay, LPS-induced PBMCs or CD14+ monocytes, Meso Scale; format: cell-based; settings: 100 ng/mL LPS 18-24 h
Description: (§7) Either frozen primary blood mononuclear cells (PBMCs) or frozen CD14+ mobilized peripheral blood monocytes were purchased from AllCells (PB003F, Normal Peripheral Blood MNC (Alameda, Calif.)). Cells were quick thawed, washed 1-time with RPMI-1640 (10% FBS/1% Pen-Strep) and plated in 96 well plates at 200,000 cells per well. Cells were pretreated with DMSO only or with the indicated compound for 1 h and then induced with 100 ng/mL lipopolysaccharide (LPS) for 18-24 h. The supernatant was analyzed for IL-1β, IL-6, and TNFα, using Meso Scale assay according to manufacturer's protocol. The negative control wells were treated with DMSO.

IL-1β = IL-1β inhibition assay, LPS-induced PBMCs or CD14+ monocytes, Meso Scale; format: cell-based; settings: 100 ng/mL LPS 18-24 h
Description: as §7

SMILES	IC50 (MV-4-11 cells) [µM]	IC50 (MOLM-13 cells [1]) [µM]	CK1α % Degradation at 1 μM (CK1α)	IC50 (PBMCs) [µM]	IC50 (THLE-2 cells) [µM]	IKAROS % Degradation at 1 μM (IKAROS)	reduced levels of GSPT1 (GSPT1; 0.1 μM) [%]	GSPT1 % Degradation at 1 μM (GSPT1; 1 μM)	reduced levels of GSPT1 (GSPT1; 1 μM) [%]	viability at 1 µM (MOLM-13 cells [2]) [%]	IC50 (NHLF cells) [µM]	IC50 concentration as fold of the IC50 concentration of Compound 1 (MV-4-11 cells)	IC50 concentration as fold of the IC50 concentration of Compound 1 (THLE-2 cells)	fold induction at 1 µM (IL-2)	inhibition at 1 µM (TNFα) [%]	inhibition at 1 µM (IL-1β) [%]
Cc1ccc(NCC(=O)NCc2ccc3c(c2)CN(C2CCC(=O)NC2=O)C3=O)cc1Cl (stereo not shown) [Compound 1, 2-((3-Chloro-4-methylphenyl)amino)-N-((2-(2,6-dioxopiperidin-3-yl)-1-oxoisoindolin-5-yl)methyl)acetamide]	0.0196	0.0748	B (a % degradation value of equal to or more than 25% and less than 50% (25%≤value<50%))	> 10	> 10	D (a % degradation value of equal to or more than 75% (value≥75%))	92	D (a % degradation value of equal to or more than 75% (value≥75%))	93	> 90	> 10					
O=C(CNc1ccccc1)NCc1ccc2c(c1)CN(C1CCC(=O)NC1=O)C2=O (stereo not shown) [Compound 16, N-((2-(2,6-dioxopiperidin-3-yl)-1-oxoisoindolin-5-yl)methyl)-2-(phenylamino)acetamide]								B (a % degradation value of equal to or more than 25% and less than 50% (25%≤value<50%))		60 to 90		over 2 fold	over 3 fold			
CC(C)(C)c1ccc(NCC(=O)NCc2ccc3c(c2)CN(C2CCC(=O)NC2=O)C3=O)cc1 (stereo not shown) [Compound 17, 2-((4-(tert-butyl)phenyl)amino)-N-((2-(2,6-dioxopiperidin-3-yl)-1-oxoisoindolin-5-yl)methyl)acetamide]			C (a % degradation value of equal to or more than 50% and less than 75% (50%≤value<75%))			C (a % degradation value of equal to or more than 50% and less than 75% (50%≤value<75%))		D (a % degradation value of equal to or more than 75% (value≥75%))		60 to 90		about 1 fold	about 1.5 fold			
Cc1ccc(NCC(=O)NCc2ccc3c(c2)CN(C2CCC(=O)NC2=O)C3=O)cc1N(C)C (stereo not shown) [Compound 18, 2-((3-(dimethylamino)-4-methylphenyl)amino)-N-((2-(2,6-dioxopiperidin-3-yl)-1-oxoisoindolin-5-yl)methyl)acetamide]			B (a % degradation value of equal to or more than 25% and less than 50% (25%≤value<50%))					D (a % degradation value of equal to or more than 75% (value≥75%))		> 90		about 0.5 fold	about 1 fold	≤ 1	30 to 50	30 to 50
Cc1cc(NCC(=O)NCc2ccc3c(c2)CN(C2CCC(=O)NC2=O)C3=O)ccc1N1CCCC1 (stereo not shown) [Compound 21, N-((2-(2,6-dioxopiperidin-3-yl)-1-oxoisoindolin-5-yl)methyl)-2-((3-methyl-4-(pyrrolidin-1-yl)phenyl)amino)acetamide]			A (a % degradation value of less than 25% (value<25%))			C (a % degradation value of equal to or more than 50% and less than 75% (50%≤value<75%))		C (a % degradation value of equal to or more than 50% and less than 75% (50%≤value<75%))		< 40				1 to 2	30 to 50	< 30
Cc1ccc(NC(=O)NCc2ccc3c(c2)CN(C2CCC(=O)NC2=O)C3=O)cc1Cl (stereo not shown) [Compound A, reference compound]	0.00187	0.00065		0.006	0.00611		82		98		0.0317					
